Source: patent publication US20050085454A1, “Phenolic antioxidant-chromium complexes for treatment or prevention of type 2 diabetes or glucose intolerance” (NATREON INC., priority 2003, published 2005)

Experiments:
[1] = test system: patients with NIDDM; conditions: oral administration; cited from earlier work
[2] = test system: patients with coronary heart disease; conditions: 60 mg twice daily oral, after 8 weeks; cited from earlier work
[3] = test system: rats with diabetes induced by chemical destruction of β-cells; conditions: 1% taurine in the drinking water; cited from earlier work
[4] = Effects on animal body weight in STZ-induced hyperglycemia; type: in vivo; conditions: STZ-treated rats, 100 mg/Kg oral
[5] = test system: Steptozocine(STZ)-induced male Wistar rats; test: Effect of high doses of the inventive complex, blood sugar over 21 days; type: in vivo; conditions: 100 mg/Kg oral (S-2: Cr3+ 1,000 μg/Kg; chromium picolinate: Cr3+ 700 μg/Kg), concurrently with STZ 40 mg/Kg s.c.
[6] = test system: STZ-induced diabetic rats; test: Repairing damaged β-cells: treatment of STZ-induced diabetic rats for further 21 days; type: in vivo
Protocol: In another set of experiments, STZ-induced diabetic rats, after 21 days, were administered the invention test complex compounds: S-1 (50 mg/Kg, p.o.), S-2 (100 mg/Kg, p.o.), Chromium picolinate (100 mg/Kg, p.o.), Example-1A (100 mg/Kg., p.o.), per day for further 21 days. This experiment was conducted with a view to assessing the repair aspect of the damaged β-cells by the test compounds.

[7] = test system: Steptozocine(STZ)-induced male albino rats; test: Screening of antidiabetic activity, blood sugar lowering action; type: in vivo; conditions: 300 μg/Kg oral, 48 hr after STZ
[8] = test system: obese Zucker rat; conditions: dietary Vitamin E; cited from earlier work
[9] = test system: GK rat; conditions: Vitamin E supplementation; cited from earlier work

O=C(O)CCCC[C@@H]1CCSS1 (racemic) [lipoic acid]
insulin-mediated glucose uptake [1]: significantly increased

COC1=C(OC)C(=O)C(C/C=C(\C)CC/C=C(\C)CC/C=C(\C)CC/C=C(\C)CC/C=C(\C)CC/C=C(\C)CC/C=C(\C)CC/C=C(\C)CC/C=C(\C)CCC=C(C)C)=C(C)C1=O [coenzyme Q10]
plasma levels of insulin (fasting and 2-hr), glucose, and lipid peroxides, as compared to the control group [2]: reduced

NCCS(=O)(=O)O [taurine]
renal oxidant injury [3]: reduced

Chromium picolinate
Body Weight in gm, day 1 ([4]; day 1): 166 ± 8 gm
Body Weight in gm, day 7 ([4]; day 7): 180 ± 7 gm
Body Weight in gm, day 14 ([4]; day 14): 168 ± 9 gm
Body Weight in gm, day 21 ([4]; day 21): 172 ± 9 gm
Blood Sugar Values (Arterial Blood), day 7 ([5]; day 7): 88.7 ± 4.4
Blood Sugar Values (Arterial Blood), day 14 ([5]; day 14): 94.3 ± 7.2
Blood Sugar Values (Arterial Blood), day 21 ([5]; day 21): 92.5 ± 3.5
% Change from day 1 (glucose) ([6]; 100 mg/Kg p.o. per day for 21 days, started 21 days after STZ, day 21 vs day 1): +14 ↑ %
Glucose (mg/dl) values; mean ± SE, day 1 ([6]; 100 mg/Kg p.o. per day, started 21 days after STZ, day 1): 253.2 ± 7.7 mg/dL
Glucose (mg/dl) values; mean ± SE, day 7 ([6]; 100 mg/Kg p.o. per day, started 21 days after STZ, day 7): 302.8 ± 18.0 mg/dL
Glucose (mg/dl) values; mean ± SE, day 14 ([6]; 100 mg/Kg p.o. per day, started 21 days after STZ, day 14): 294.3 ± 20.4 mg/dL
Glucose (mg/dl) values; mean ± SE, day 21 ([6]; 100 mg/Kg p.o. per day, started 21 days after STZ, day 21): 289.6 ± 9.0 mg/dL
effect on progressive increase in hyperglycemia (post STZ-treatment) ([6]; diabetic rats treated p.o. for 21 days): no beneficial effect

Chromium polynicotinate [Example N-7]
Fasting Serum Glucose (mg/dl) (mean ± SEM) ([7]; 3 days before and 2 days after STZ 50 mg/Kg i.v., 18 hr fasting): 141.30 ± 9.54 mg/dL
% Inhibition (of fasting serum glucose vs STZ) ([7]; 3 days before and 2 days after STZ): 58.25%

Vitamin E
glucose-stimulated hyper-insulinemia and lipid peroxidation [8]: significantly reduced
glycemic control [9]: significantly improved
